Measurements published in patent USRE48335E1, “Polymyxin derivatives as antimicrobial compounds” (priority 2014, dated 2020).
≈ marks a conversion by molar mass, not a printed value. Positions of bridges follow the written chain, without caps; N, C: chain ends. Non-standard residues stand in square brackets, D forms with d. Residues, ends and D or L forms follow the SMILES beside them. *: point of attachment. X41 = O=S(=O)(c1ccc(Cl)cc1Cl)*; Decanoyl = CCCCCCCCCC(=O)*; X29 = Cc1cc(C)cc(C(=O)*)c1; Nonanoyl = CCCCCCCCC(=O)*; Heptanoyl = CCCCCCC(=O)*; Octanoyl = CCCCCCCC(=O)*; Orn = NCCC[C@H](N)C(=O)O; Dab = NCC[C@H](N)C(=O)O; X39 = O=C(Cc1ccccc1Cl)*; Abu = CC[C@H](N)C(=O)O; Dap = NC[C@H](N)C(=O)O; X35 = O=C(Cc1ccccc1F)*

Legend:
Acinetobacter baumannii = test system: Acinetobacter baumannii
In short: (§1)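 Minimum inhibitory concentrations come from CLSI-standard broth microdilution in cation-adjusted Mueller-Hinton broth.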

Enterobacter cloacae = test system: Enterobacter cloacae
In short: as §1

Pseudomonas aeruginosa = test system: Pseudomonas aeruginosa
In short: as §1

| SMILES | Minimum inhibitory concentration, Ab A ATCC 17978 (Acinetobacter baumannii) [µg/mL] | Minimum inhibitory concentration, Ab ATCC 19606 (Acinetobacter baumannii) [µg/mL] | Minimum inhibitory concentration, Ab FADDI-AB034 (Acinetobacter baumannii) [µg/mL] | Minimum inhibitory concentration, Ec FADDI-EC001 (Enterobacter cloacae) [µg/mL] | Minimum inhibitory concentration, Ec FADDI-EC003 (Enterobacter cloacae) [µg/mL] | Minimum inhibitory concentration, Ec FADDI-EC006 (Enterobacter cloacae) [µg/mL] | Minimum inhibitory concentration, Pa ATCC 27853 (Pseudomonas aeruginosa) [µg/mL] | Minimum inhibitory concentration, Pa FADDI-PA022 (Pseudomonas aeruginosa) [µg/mL] | Minimum inhibitory concentration, Pa FADDI-PA025 (Pseudomonas aeruginosa) [µg/mL] | Minimum inhibitory concentration (MIC), Ab ATCC 17978 (Acinetobacter baumannii; Acinetobacter baumannii ATCC 17978, broth microdilution in CAMHB, TFA salt) [µg/mL] | Minimum inhibitory concentration (MIC), Ab ATCC 19606 (Acinetobacter baumannii; Acinetobacter baumannii ATCC 19606, broth microdilution in CAMHB, TFA salt) [µg/mL] | Minimum inhibitory concentration (MIC), Ab FADDI-AB034 (Acinetobacter baumannii; Acinetobacter baumannii FADDI-AB034, broth microdilution in CAMHB, TFA salt) [µg/mL] | Minimum inhibitory concentration (MIC), Ec FADDI-EC001 (Enterobacter cloacae; Enterobacter cloacae FADDI-EC001, broth microdilution in CAMHB, TFA salt) [µg/mL] | Minimum inhibitory concentration (MIC), Ec FADDI-EC003 (Enterobacter cloacae; Enterobacter cloacae FADDI-EC003, broth microdilution in CAMHB, TFA salt) [µg/mL] | Minimum inhibitory concentration (MIC), Ec FADDI-EC006 (Enterobacter cloacae; Enterobacter cloacae FADDI-EC006, broth microdilution in CAMHB, TFA salt) [µg/mL] | Minimum inhibitory concentration (MIC), Pa ATCC 27853 (Pseudomonas aeruginosa; Pseudomonas aeruginosa ATCC 27853, broth microdilution in CAMHB, TFA salt) [µg/mL] | Minimum inhibitory concentration (MIC), Pa FADDI-PA022 (Pseudomonas aeruginosa; Pseudomonas aeruginosa FADDI-PA022, broth microdilution in CAMHB, TFA salt) [µg/mL] | Minimum inhibitory concentration (MIC), Pa FADDI-PA025 (Pseudomonas aeruginosa; Pseudomonas aeruginosa FADDI-PA025, broth microdilution in CAMHB, TFA salt) [µg/mL] |
| --- | --- | --- | --- | --- | --- | --- | --- | --- | --- | --- | --- | --- | --- | --- | --- | --- | --- | --- |
| CCCCCCCC(=O)N[C@@H](CCN)C(=O)N[C@H](C(=O)N[C@@H](CN)C(=O)N[C@H]1CCNC(=O)[C@H]([C@@H](C)O)NC(=O)[C@H](CCN)NC(=O)[C@H](CN)NC(=O)[C@H]([C@@H](C)O)NC(=O)[C@@H](CC(C)C)NC(=O)[C@H](CCN)NC1=O)[C@@H](C)O [Compound 51] (Octanoyl-[Dab]T[Dap][Dab][Dab][dL]T[Dap][Dab]T; lactam 4-C) | 4 (≈ 3.59 µM) | 4 (≈ 3.59 µM) | 8 (≈ 7.17 µM) | 0.25 (≈ 0.224 µM) | 0.25 (≈ 0.224 µM) | 1 (≈ 0.897 µM) | 1 (≈ 0.897 µM) | 0.5 (≈ 0.448 µM) | >32 | – | – | – | – | – | – | – | – | – |
| CC[C@@H]1NC(=O)[C@@H](CC(C)C)NC(=O)[C@H](CCN)NC(=O)[C@@H](NC(=O)[C@H](CN)NC(=O)[C@@H](NC(=O)[C@H](CCN)NC(=O)Cc2ccccc2Cl)[C@@H](C)O)CCNC(=O)[C@H]([C@@H](C)O)NC(=O)[C@H](CCN)NC(=O)[C@H](CCN)NC1=O [Compound 84] (X39-[Dab]T[Dap][Dab][Dab][dL][Abu][Dab][Dab]T; lactam 4-C) | 2 (≈ 1.75 µM) | 8 (≈ 7.02 µM) | 2 (≈ 1.75 µM) | <0.125 | 0.25 (≈ 0.219 µM) | 0.5 (≈ 0.439 µM) | 0.5 (≈ 0.439 µM) | 2 (≈ 1.75 µM) | 2 (≈ 1.75 µM) | – | – | – | – | – | – | – | – | – |
| CCCCCCCC(=O)N[C@@H](CCCN)C(=O)N[C@H](C(=O)N[C@H](CO)C(=O)N[C@H]1CCNC(=O)[C@H]([C@@H](C)O)NC(=O)[C@H](CCN)NC(=O)[C@H](CCN)NC(=O)[C@H]([C@@H](C)O)NC(=O)[C@@H](CC(C)C)NC(=O)[C@H](CCN)NC1=O)[C@@H](C)O [Compound 14] (Octanoyl-[Orn]T[dS][Dab][Dab][dL]T[Dab][Dab]T; lactam 4-C) | 8 (≈ 6.99 µM) | 16 (≈ 14 µM) | 4 (≈ 3.5 µM) | 0.25 (≈ 0.218 µM) | 0.5 (≈ 0.437 µM) | 4 (≈ 3.5 µM) | >32 | 8 (≈ 6.99 µM) | >32 | – | – | – | – | – | – | – | – | – |
| CCCCCCCCC(=O)N[C@@H](CCN)C(=O)N[C@H](C(=O)N[C@@H](CCN)C(=O)N[C@H]1CCNC(=O)[C@H]([C@@H](C)O)NC(=O)[C@H](CCN)NC(=O)[C@H](CCN)NC(=O)[C@H]([C@@H](C)O)NC(=O)[C@@H](CC(C)C)NC(=O)[C@H](CCN)NC1=O)[C@@H](C)O [Compound 43] (Nonanoyl-[Dab]T[Dab][Dab][Dab][dL]T[Dab][Dab]T; lactam 4-C) | 0.5 (≈ 0.432 µM) | 0.5 (≈ 0.432 µM) | 1 (≈ 0.864 µM) | 0.25 (≈ 0.216 µM) | <0.125 | 0.5 (≈ 0.432 µM) | 0.5 (≈ 0.432 µM) | 1 (≈ 0.864 µM) | 16 (≈ 13.8 µM) | – | – | – | – | – | – | – | – | – |
| CC[C@@H]1NC(=O)[C@@H](CC(C)C)NC(=O)[C@H](CCN)NC(=O)[C@@H](NC(=O)[C@H](CN)NC(=O)[C@@H](NC(=O)[C@H](CCN)NS(=O)(=O)c2ccc(Cl)cc2Cl)[C@@H](C)O)CCNC(=O)[C@H]([C@@H](C)O)NC(=O)[C@H](CCN)NC(=O)[C@H](CCN)NC1=O [Compound 148] (X41-[Dab]T[Dap][Dab][Dab][dL][Abu][Dab][Dab]T; lactam 4-C) | – | – | – | – | – | – | – | – | – | 0.5 | 2 | 1 | 2 | 4 | 1 | 1 | 1 | 16 |
| CC[C@@H]1NC(=O)[C@@H](CC(C)C)NC(=O)[C@H](CCN)NC(=O)[C@@H](NC(=O)[C@H](CN)NC(=O)[C@@H](NC(=O)[C@H](CCN)NC(=O)c2cc(C)cc(C)c2)[C@@H](C)O)CCNC(=O)[C@H]([C@@H](C)O)NC(=O)[C@H](CCN)NC(=O)[C@H](CCN)NC1=O [Compound 93] (X29-[Dab]T[Dap][Dab][Dab][dL][Abu][Dab][Dab]T; lactam 4-C) | 0.5 (≈ 0.447 µM) | 1 (≈ 0.893 µM) | 0.5 (≈ 0.447 µM) | 0.25 (≈ 0.223 µM) | 1 (≈ 0.893 µM) | 4 (≈ 3.57 µM) | 2 (≈ 1.79 µM) | 4 (≈ 3.57 µM) | 2 (≈ 1.79 µM) | – | – | – | – | – | – | – | – | – |
| CCCCCCC(=O)N[C@@H](CCN)C(=O)N[C@H](C(=O)N[C@@H](CN)C(=O)N[C@H]1CCNC(=O)[C@H]([C@@H](C)O)NC(=O)[C@H](CCN)NC(=O)[C@H](CCN)NC(=O)[C@H](C)NC(=O)[C@@H](CC(C)C)NC(=O)[C@H](CCN)NC1=O)[C@@H](C)O [Compound 63] (Heptanoyl-[Dab]T[Dap][Dab][Dab][dL]A[Dab][Dab]T; lactam 4-C) | 1 (≈ 0.921 µM) | 2 (≈ 1.84 µM) | 1 (≈ 0.921 µM) | 0.5 (≈ 0.461 µM) | <0.125 | 0.5 (≈ 0.461 µM) | 0.5 (≈ 0.461 µM) | 2 (≈ 1.84 µM) | >32 | – | – | – | – | – | – | – | – | – |
| CCCCCCCCCC(=O)N[C@@H](CCN)C(=O)N[C@H](C(=O)N[C@@H](CCN)C(=O)N[C@H]1CCNC(=O)[C@H]([C@@H](C)O)NC(=O)[C@H](CCN)NC(=O)[C@H](CCN)NC(=O)[C@H](C(C)C)NC(=O)[C@@H](CC(C)C)NC(=O)[C@H](CCN)NC1=O)[C@@H](C)O [Compound 41] (Decanoyl-[Dab]T[Dab][Dab][Dab][dL]V[Dab][Dab]T; lactam 4-C) | 1 (≈ 0.855 µM) | 1 (≈ 0.855 µM) | 0.5 (≈ 0.428 µM) | 1 (≈ 0.855 µM) | 0.5 (≈ 0.428 µM) | 0.5 (≈ 0.428 µM) | 1 (≈ 0.855 µM) | 4 (≈ 3.42 µM) | 2 (≈ 1.71 µM) | – | – | – | – | – | – | – | – | – |
| CCCCCCC(=O)N[C@@H](CCN)C(=O)N[C@H](C(=O)N[C@H](CO)C(=O)N[C@H]1CCNC(=O)[C@H]([C@@H](C)O)NC(=O)[C@H](CCN)NC(=O)[C@H](CCN)NC(=O)[C@H]([C@@H](C)O)NC(=O)[C@@H](CC(C)C)NC(=O)[C@H](CCN)NC1=O)[C@@H](C)O [Compound 16] (Heptanoyl-[Dab]T[dS][Dab][Dab][dL]T[Dab][Dab]T; lactam 4-C) | 0.5 (≈ 0.448 µM) | 2 (≈ 1.79 µM) | 2 (≈ 1.79 µM) | 0.5 (≈ 0.448 µM) | 0.25 (≈ 0.224 µM) | 0.25 (≈ 0.224 µM) | 4 (≈ 3.58 µM) | 4 (≈ 3.58 µM) | >32 | – | – | – | – | – | – | – | – | – |
| CCCCCCCC(=O)N[C@@H](CCN)C(=O)N[C@H](C(=O)N[C@@H](C(=O)N[C@H]1CCNC(=O)[C@H]([C@@H](C)O)NC(=O)[C@H](CCN)NC(=O)[C@H](CCN)NC(=O)[C@H]([C@@H](C)O)NC(=O)[C@@H](CC(C)C)NC(=O)[C@H](CCN)NC1=O)[C@H](C)O)[C@@H](C)O [Compound 15] (Octanoyl-[Dab]T[dT][Dab][Dab][dL]T[Dab][Dab]T; lactam 4-C) | 0.5 (≈ 0.437 µM) | 2 (≈ 1.75 µM) | 1 (≈ 0.874 µM) | 1 (≈ 0.874 µM) | 2 (≈ 1.75 µM) | 1 (≈ 0.874 µM) | 16 (≈ 14 µM) | 16 (≈ 14 µM) | >32 | – | – | – | – | – | – | – | – | – |
| CC[C@@H]1NC(=O)[C@@H](CC(C)C)NC(=O)[C@H](CCN)NC(=O)[C@@H](NC(=O)[C@H](CN)NC(=O)[C@@H](NC(=O)[C@H](CCN)NC(=O)Cc2ccccc2F)[C@@H](C)O)CCNC(=O)[C@H]([C@@H](C)O)NC(=O)[C@H](CCN)NC(=O)[C@H](CCN)NC1=O [Compound 85] (X35-[Dab]T[Dap][Dab][Dab][dL][Abu][Dab][Dab]T; lactam 4-C) | 2 (≈ 1.78 µM) | 4 (≈ 3.56 µM) | 2 (≈ 1.78 µM) | 0.5 (≈ 0.445 µM) | 1 (≈ 0.89 µM) | 1 (≈ 0.89 µM) | 0.5 (≈ 0.445 µM) | 2 (≈ 1.78 µM) | 2 (≈ 1.78 µM) | – | – | – | – | – | – | – | – | – |
